# Test results: patent US20220056018A1, “SREBP INHIBITORS COMPRISING A THIOPHENE CENTRAL RING” (Capulus Therapeutics, LLC, priority 2019, published 2022)
# How the values were obtained:
# [1] = Stability in mouse liver microsomes; assay type: in vitro ADME
# Experimental: (§1) Compounds were evaluated for stability in human liver microsomes. A 10 mM stock solution of the compound being evaluated was prepared in DMSO and diluted with water:acetonitrile (1:1) to a concentration of 1 mM. A working concentration of 100 μM was prepared by further dilution with water:acetonitrile (1:1). To make the preincubation mixture, 2.5 μL of the diluted compound was combined with 75 μL of human liver microsomes at 3.33 mg/mL, and 85 μL of 100 mM potassium phosphate buffer, and this mixture was pre-incubated for 10 min at 37° C. To make the 60 minute mixture without cofactor, 32.5 μL of the preincubation mixture was combined with 17.5 μL of 100 mM potassium phosphate buffer and incubated for 60 min at 37° C. To make the 0 min sample with cofactor (NADPH), 16.25 μL of the preincubation mixture was combined with 200 μL of acetonitrile containing internal standard and 8.75 μL of cofactor (NADPH). To make the incubation mixture, 62 μL of cofactor (2.85 mM) was combined with the remaining incubation mixture, and incubated for 60 min at 37° C. To prepare the sample mixture to be evaluated, 25 μL incubation mixture was combined with 200 μL of acetonitrile containing internal standard and vortexed for 5 min at 1200 rpm, then centrifuged for 10 min at 4000 rpm. The supernatant was diluted 2 fold with water and injected on LC-MS/MS. The sample mixture was evaluated by LC-MS/MS using 10 mM ammonium acetate with 0.100 FA as the aqueous mobile phase, and methanol as the organic mobile phase.
# Half-Life Mouse Microsomes:
# Compounds were evaluated in mouse liver microsomes following a similar procedure as described above for human liver microsomes. A similar procedure could be used to evaluate compounds in rat liver microsomes.
# [2] = Stability in human liver microsomes; assay type: in vitro ADME; settings: 37° C., NADPH
# Experimental: Half-Life Human Microsomes:
# as §1
# SREBP = assay: Reporter Screening Assay (SRE-luciferase reporter, HepG2); assay type: cell-based; settings: Homo sapiens; SRE-luciferase reporter HepG2 cells, 24 hours, 0.01 uM to 10 uM; read-out: I: Reporter Screening Assay (Ave EC50 (nM))
# Experimental: Reporter Screening Assay: This assay was used to evaluate the effect on transcriptional activity SREBP of selected compounds using an SRE-luciferase reporter construct. On day 1, 10,000 cells were seeded in a 96 well (white) plate as per the plate map in Growth media without antibiotics. Cells were incubated at 37° C. for 8 hours. After 8 hours, cells were washed with DPBS for complete removal of FBS. DPBS was completely removed and Growth media was replaced with phenol free treatment medium (90 μl) with different FBS concentrations. The cells were then incubated at 37° C. for 24 hours with varying doses (0.01 uM to 10 uM) of compounds. Then a Luciferase assay was performed.
# Reagents for performing Luciferase assay were stored at −20° C. To a tube of lyophilized assay substrate was added 1 mL Substrate Solvent and mixed well. The Substrate tube after reconstitution was covered with aluminum foil so as to keep it protected from light. The assay buffer was thawed to room temperature. To 20 mL Assay Buffer was added 200 μL of reconstituted 100× Substrate and mixed well. The reconstituted substrate as well as the assay solution (buffer+substrate) was protected from light throughout the procedure by keeping it covered with aluminum foil. Using a multi-channel pipette, 100 μL Assay Solution (buffer+substrate) was added directly to each sample well in Plate 1, which was incubated for 30 min (plate was covered with aluminum foil). After 30 min incubation, the plate was read for total luminescence. Each well was read for 2 seconds in a plate luminometer. (Microplate reader Envision Microplate reader from Perkin Elmer). Precaution was taken to incubate plate exactly for 30 min prior to reading on the plate reader.
# SREBPv1 Reporter cell line: HepG2—#32251. Growth Medium: MEM (Corning 10-010), 10% FBS, 1% GlutaMax (Invitrogen Catalog #35050061), […] (Invitrogen Catalog # A1113803) and 1% Penicillin-Streptomycin (Pen-Strep). Treatment Media: Phenol-free MEM (Invitrogen Catalog #51200-038) and 1% GlutaMax (Invitrogen Catalog #35050061). Luciferase Assay: LightSwitch Luciferase Assay Kit (Catalog #32032). LDH assay: Pierce LDH Cytotoxicity Assay Kit (Catalog # SD249616).
SMILES,percent parent remaining after 60 min in liver microsomes [1],percent of compound remaining after 60 min in human liver microsomes [2],EC50 (SREBP) [nM]
"CC(C)(CO)c1cc(-c2csc(-c3ccc(NC(=O)N4CCC(O)CC4)cc3Cl)c2)ccn1 [Compound I-8926, N-(3-chloro-4-(4-(2-(1-hydroxy-2-methylpropan-2-yl)pyridin-4-yl)thiophen-2-yl)phenyl)-4-hydroxypiperidine-1-carboxamide]",+++ (>60.1 = +++),++ (30.1-60 = ++),< 249
"CC(C)(CO)c1cc(-c2csc(-c3ccc(N4CCOC4=O)cc3Cl)c2)ccn1 [Compound I-8939, 3-(3-chloro-4-(4-(2-(1-hydroxy-2-methylpropan-2-yl)pyridin-4-yl)thiophen-2-yl)phenyl)oxazolidin-2-one]",+++ (>60.1 = +++),++ (30.1-60 = ++),250 to 500
"CC(C)(CO)c1cc(-c2csc(-c3ccc(NS(=O)(=O)C(F)(F)F)cc3Cl)c2)ccn1 [Compound I-8940, N-(3-chloro-4-(4-(2-(1-hydroxy-2-methylpropan-2-yl)pyridin-4-yl)thiophen-2-yl)phenyl)-1,1,1-trifluoromethanesulfonamide]",++ (30.1-60 = ++),+ (0-30 = +),< 249
CC(C)NS(=O)(=O)Nc1ccc(-c2cc(-c3ccnc(C(C)(C)CO)c3)cs2)c(Cl)c1 [Compound I-8941],++ (30.1-60 = ++),++ (30.1-60 = ++),< 249
"CC(C)OC(=O)Nc1ccc(-c2cc(-c3ccnc(C4CC4)c3)cs2)c(Cl)c1 [Compound I-8966, Isopropyl (3-chloro-4-(4-(2-cyclopropylpyridin-4-yl)thiophen-2-yl)phenyl)carbamate]",+++ (>60.1 = +++),+++ (>60.1 = +++),< 249
"CC(C)OC(=O)Nc1ccc(-c2cc(-c3ccnc(C4(CO)CC4)c3)cs2)c(Cl)c1 [Compound I-8980, Isopropyl (3-chloro-4-(4-(2-(1-(hydroxymethyl)cyclopropyl)pyridin-4-yl)thiophen-2-yl)phenyl)carbamate]",+++ (>60.1 = +++),+++ (>60.1 = +++),< 249
"CS(=O)(=O)Nc1ccc(-c2cc(-c3ccnc(C4(CO)CC4)c3)cs2)c(Cl)c1 [Compound I-9002, N-(3-chloro-4-(4-(2-(1-(hydroxymethyl)cyclopropyl)pyridin-4-yl)thiophen-2-yl)phenyl)methanesulfonamide]",+++ (>60.1 = +++),+++ (>60.1 = +++),< 249
"CN(c1ccc(-c2cc(-c3ccnc(C4CC4)c3)cs2)c(Cl)c1)S(C)(=O)=O [Compound I-9037, N-(3-chloro-4-(4-(2-cyclopropylpyridin-4-yl)thiophen-2-yl)phenyl)-N-methylmethanesulfonamide]",+++ (>60.1 = +++),+++ (>60.1 = +++),< 249
"CN(C(=O)OC1CC1)c1ccc(-c2cc(-c3ccnc(C4CC4)c3)cs2)c(Cl)c1 [Compound I-9038, cyclopropyl (3-chloro-4-(4-(2-cyclopropylpyridin-4-yl)thiophen-2-yl)phenyl)(methyl)carbamate]",+++ (>60.1 = +++),+++ (>60.1 = +++),< 249
"CC(C)(C#N)c1cc(-c2csc(-c3ccc(NS(C)(=O)=O)cc3Cl)c2)ccn1 [Compound I-9039, N-(3-chloro-4-(4-(2-(2-cyanopropan-2-yl)pyridin-4-yl)thiophen-2-yl)phenyl)methanesulfonamide]",+++ (>60.1 = +++),+++ (>60.1 = +++),> 500
"CN(C(=O)OC1CC1)c1ccc(-c2cc(-c3ccnc(C4(CO)CC4)c3)cs2)c(Cl)c1 [Compound I-9042, Cyclopropyl (3-chloro-4-(4-(2-(1-(hydroxymethyl)cyclopropyl)pyridin-4-yl)thiophen-2-yl)phenyl)(methyl)carbamate]",+++ (>60.1 = +++),++ (30.1-60 = ++),< 249
"CC(C)(CN)c1cc(-c2csc(-c3ccc(NS(C)(=O)=O)cc3Cl)c2)ccn1 [Compound I-9049, N-(4-(4-(2-(1-amino-2-methylpropan-2-yl)pyridin-4-yl)thiophen-2-yl)-3-chlorophenyl)methanesulfonamide]",+++ (>60.1 = +++),+++ (>60.1 = +++),> 500
"CC(C)OC(=O)Nc1ccc(-c2cc(-c3ccnc(CC(C)(C)O)c3)cs2)c(Cl)c1 [Compound I-9051, isopropyl (3-chloro-4-(4-(2-(2-hydroxy-2-methylpropyl)pyridin-4-yl)thiophen-2-yl)phenyl)carbamate]",+++ (>60.1 = +++),+++ (>60.1 = +++),> 500
"CN(c1ccc(-c2cc(-c3ccnc(C4(CO)CC4)c3)cs2)c(Cl)c1)S(C)(=O)=O [Compound I-9056, N-(3-chloro-4-(4-(2-(1-(hydroxymethyl)cyclopropyl)pyridin-4-yl)thiophen-2-yl)phenyl)-N-methylmethanesulfonamide]",+++ (>60.1 = +++),++ (30.1-60 = ++),< 249
"CC(C)OC(=O)Nc1ccc(-c2cc(-c3ccnc(OC4CC4)c3)cs2)c(Cl)c1 [Compound I-9060, isopropyl (3-chloro-4-(4-(2-cyclopropoxypyridin-4-yl)thiophen-2-yl)phenyl)carbamate]",+++ (>60.1 = +++),+++ (>60.1 = +++),< 249
"CC(C)OC(=O)Nc1ccc(-c2cc(-c3ccnc4c3OCCO4)cs2)c(Cl)c1 [Compound I-9062, isopropyl (3-chloro-4-(4-(2,3-dihydro-[1,4]dioxino[2,3-b]pyridin-8-yl)thiophen-2-yl)phenyl)carbamate]",+++ (>60.1 = +++),+++ (>60.1 = +++),< 249
"CC(C)(O)c1cc(-c2csc(-c3ccc(NS(C)(=O)=O)cc3Cl)c2)ccn1 [Compound I-9064, N-(3-chloro-4-(4-(2-(2-hydroxypropan-2-yl)pyridin-4-yl)thiophen-2-yl)phenyl)methanesulfonamide]",+++ (>60.1 = +++),+++ (>60.1 = +++),< 249
"CC(C)(O)c1cc(-c2csc(-c3ccc(NC(=O)OC4CC4)cc3Cl)c2)ccn1 [Compound I-9065, cyclopropyl (3-chloro-4-(4-(2-(2-hydroxypropan-2-yl)pyridin-4-yl)thiophen-2-yl)phenyl)carbamate]",+++ (>60.1 = +++),+++ (>60.1 = +++),> 500
